Reference: patent US20100137313A1 (ASTRAZENECA AB, priority 2008, published 2010)

The compounds below were run against S. pneumoniae Topoisomerase IV ATPase (ParE) (Streptococcus pneumoniae serotype 4, UniProt Q59961) (assay: S. pneumoniae Topoisomerase IV ATPase inhibition). Settings: values marked * are an average of two or more data points, read-out: % Inh (13 μM) of S. pneumoniae Topoisomerase IV ATPase.
Type: biochemical
Outline: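 S. pneumoniae ParE (1.25 nM) ATPase with 160 μM ATP and 5 μg/ml sheared DNA in pH 8.0 Tris, Mg2+, DTT, Brij-35; phosphate detected by malachite green/molybdate at 650 nm. Normalised to 2% DMSO (0%) and 20 μM EDTA (100%); IC50 from 10 concentrations.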

S. pneumoniae Topoisomerase IV ATPase (ParE), sequence (Q59961 whole entry): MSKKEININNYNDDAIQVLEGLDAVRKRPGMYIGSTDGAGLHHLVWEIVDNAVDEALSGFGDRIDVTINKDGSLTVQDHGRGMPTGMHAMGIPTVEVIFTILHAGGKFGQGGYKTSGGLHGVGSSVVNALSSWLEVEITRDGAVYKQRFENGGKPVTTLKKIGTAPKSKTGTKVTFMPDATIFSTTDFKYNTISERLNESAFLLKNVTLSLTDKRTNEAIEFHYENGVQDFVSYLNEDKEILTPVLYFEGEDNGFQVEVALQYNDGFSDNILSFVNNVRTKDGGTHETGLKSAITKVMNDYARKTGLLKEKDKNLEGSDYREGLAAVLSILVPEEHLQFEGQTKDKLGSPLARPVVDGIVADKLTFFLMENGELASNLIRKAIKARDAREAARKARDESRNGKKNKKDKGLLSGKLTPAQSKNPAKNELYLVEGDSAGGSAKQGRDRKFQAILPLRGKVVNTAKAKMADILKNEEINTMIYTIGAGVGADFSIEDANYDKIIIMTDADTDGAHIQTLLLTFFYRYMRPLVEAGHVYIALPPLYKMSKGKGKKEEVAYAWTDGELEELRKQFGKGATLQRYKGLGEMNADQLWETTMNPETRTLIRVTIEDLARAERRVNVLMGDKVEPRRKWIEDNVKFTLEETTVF

First: Fc1ccc(Nc2ncc(-c3cncnc3)c(NCc3ccccn3)n2)cc1Cl [Example 38, N^2-(3-chloro-4-fluorophenyl)-N^4-(pyridin-2-ylmethyl)-5-pyrimidin-5-ylpyrimidine-2,4-diamine]
Second: COCCCNc1nc(Nc2ccc(F)c(Cl)c2)ncc1-c1cncc(C(=O)O)c1 [Example 277, 5-(2-(3-chloro-4-fluorophenylamino)-4-(3-methoxypropylamino)-pyrimidin-5-yl)nicotinic acid]
The inhibition at 13 µM of the first is lower: 62.3% for the first, 85.9% for the second.

Compared with O=C(O)c1cncc(-c2cnc(Nc3ccc(F)c(Cl)c3)nc2-n2nccn2)c1 [Example 317, 5-{4-(2H-1,2,3-triazol-2-yl)-2-[(3-chloro-4-fluorophenyl)amino]pyrimidin-5-yl}pyridine-3-carboxylic acid], CCOC(=O)c1cncc(-c2cnc(Nc3ccc(F)c(Cl)c3)nc2N2CCCC(CO)C2)c1 (stereo not drawn) [Example 118, ethyl 5-[2-[(3-chloro-4-fluorophenyl)amino]-4-[3-(hydroxymethyl)piper-idin-1-yl]pyrimidin-5-yl]pyridine-3-carboxylate] is lower in inhibition at 13 µM: 84.9% for the first, 80.6% for the second.

First: CC(=O)Nc1ccn(-c2nc(Nc3ccc(F)c(Cl)c3)ncc2-c2cccc(/C=C/C(=O)O)c2)n1 [Example 566, (2E)-3-(3-{4-[3-(acetylamino)-1H-pyrazol-1-yl]-2-[(3-chloro-4-fluorophenyl)amino]pyrimidin-5-yl}phenyl)prop-2-enoic acid]
Second: CCOC(=O)/C=C/c1cccc(-c2cnc(Nc3ccc(F)c(Cl)c3)nc2-n2cccn2)c1 [Example 1112, ethyl (E)-3-[3-[2-[(3-chloro-4-fluorophenyl)amino]-4-pyrazol-1-ylpyrimidin-5-yl]phenyl]prop-2-enoate]
The inhibition at 13 µM of the first is lower: 52% for the first, 71% for the second.

Going from COc1cc(C)cc(Nc2ncc(-c3cncc(C(=O)O)c3)c(-n3ccc(C(F)(F)F)n3)n2)c1 [Example 776, 5-{2-[(3-methoxy-5-methylphenyl)amino]-4-[3-(trifluoromethyl)-1H-pyrazol-1-yl]pyrimidin-5-yl}pyridine-3-carboxylic acid] to CCn1cc(-c2cnc(Nc3cc(C)cc(OC)c3)nc2-n2ccc(C(F)(F)F)n2)cc(C(=O)NS(C)(=O)=O)c1=O [Example 1175, 1-ethyl-5-{2-[(3-methoxy-5-methylphenyl)amino]-4-[3-(trifluoromethyl)-1H-pyrazol-1-yl]pyrimidin-5-yl}-N-(methylsulfonyl)-2-oxo-1,2-dihydropyridine-3-carboxamide], the inhibition at 13 µM falls from 100% to 99%.

Compared with COc1cc(Nc2ncc(-c3cccc(/C=C/C(=O)O)c3)c(NCCc3ccncc3)n2)cc(OC)c1 [Example 353, (E)-3-(3-(2-(3,5-dimethoxyphenyl-amino)-4-(2-(pyridin-4-yl)ethylamino)pyrimidin-5-yl)phenyl) acrylic acid], COc1cc(Nc2ncc(-c3cnc(NCCS(C)(=O)=O)c(C(=O)O)c3)c(-n3ccc(C(F)(F)F)n3)n2)cc(OC)c1 [Example 585, 5-(2-(3,5-dimethoxyphenylamino)-4-(3-(trifluoromethyl)-1H-pyrazol-1-yl)pyrimidin-5-yl)-2-(2-(methylsulfonyl)ethylamino)nicotinic acid] is higher in inhibition at 13 µM: 83.9% for the first, 100% for the second.

Going from CS(=O)(=O)CCn1cc(-c2cnc(Nc3ccc(F)c(Cl)c3)nc2-n2ccc(C(F)(F)F)n2)cc(C(=O)O)c1=O [Example 1091, 5-(2-(3-Chloro-4-fluorophenylamino)-4-(3-(trifluoromethyl)-1H-pyrazol-1-yl)pyrimidin-5-yl)-1-(2-(methylsulfonyl)ethyl)-2-oxo-1,2-dihydropyridine-3-carboxylic acid] to CONC(=O)c1cncc(-c2cnc(Nc3ccc(F)c(Cl)c3)nc2-n2nc(C(F)F)cc2C(F)F)c1 [Example 547, 5-{4-[3,5-bis(difluoromethyl)-1H-pyrazol-1-yl]-2-[(3-chloro-4-fluorophenyl)amino]pyrimidin-5-yl}-N-methoxypyridine-3-carboxamide], the inhibition at 13 µM falls from 100% to 71%.
